According to US11298364B2, “Methods and products for preventing and/or treating microorganism infections comprising iron chelators and non-iron porphyrins” (The University of Adelaide, priority 2015, dated 2022):

Experiments:
[1] = test system: L929 cells (mouse fibroblast cell line); assay: LDH cell viability test; assay type: cell-based; details: 2 h
Method: (§1) L929 cells (mouse fibroblast cell line) and Nuli-1 cells (human airway epithelial cell line) were obtained from ATCC (American Type Culture Collection, Manassas, Va., USA). The Nuli-1 cell line was cultured in Bronchial Epithelial Cell Growth Medium (Lonza, Australia) and L929 cells were grown in Dulbecco's Modified Eagle Medium (Sigma-Aldrich, Germany). Cells were maintained in a fully humidified incubator with 5% CO2 at 37° C.
(§2) The lactate dehydrogenase (LDH) bioassay (Roche Diagnostics Corporation, Indianapolis, Ind., USA) was performed to assess the cytotoxic effects of Def and GaPP. Briefly, cells were seeded at 1×10^4 into each well in 100 μl in quadruplicate wells of 96-well flat-bottom plates and incubated for 24 hours (37° C., 5% CO2) to allow attachment of cells. To assess the toxicity of the dual treatment, firstly, 100 μl of Def (20 mM) was added to each well. After 2 hours incubation, cells were washed three times with PBS and were exposed to different concentrations of GaPP (100, 200, 300, 400 and 500 μg/ml) for another 2 hours. In addition, cells were separately treated with either Def or GaPP for 2 hours. The OD was measured at 490 nm.

[2] = test system: Nuli-1 cells (human airway epithelial cell line); assay: LDH cell viability test; assay type: cell-based; details: 2 h
Method: as §1, §2

[3] = Drug release from hydrogel into phosphate buffered saline; assay type: physicochemical
Method: Drug release: Five millilitre of gel was prepared in a Falcon tube and allowed to solidify, after which 10 ml release medium (phosphate buffered saline, Sigma Aldrich) was added. The tube was incubated at 37° C. on a rotating platform for 20 days. […] The concentration of […] quantified by UV-Vis spectroscopy (Evolution 201 UV-Vis Spectrophotometer, Thermo Fisher Scientific, Scoresby, VIC, Australia) at 280 nm and 405 nm, respectively, by interpolating from a standard curve.

[4] = test system: planktonic clinical MRSA isolate MRSA a; assay: MIC of gel-released drugs, broth dilution (Example 6); assay type: cell-based, Staphylococcus aureus; details: MRSA a (resistant to 4 antibiotics)
Method: (§3) Bacterial strains: S. aureus ATCC 25923 was purchased from American Type Culture Collection (Manassas, Va., USA). Clinical MRSA isolate strains were obtained from Adelaide Pathology Partners (Mile End, SA, Australia).
(§4) The MIC was evaluated as the lowest drug concentration preventing bacterial growth.

[5] = test system: planktonic clinical MRSA isolate MRSA c; assay: as above; assay type: cell-based, Staphylococcus aureus; details: MRSA c (resistant to 5 antibiotics)
Method: as §3, §4

[6] = test system: planktonic clinical MRSA isolate MRSA d; assay: as above; assay type: cell-based, Staphylococcus aureus; details: MRSA d (resistant to 7 antibiotics)
Method: as §3, §4

[7] = test system: planktonic S. aureus ATCC 25923; assay: as above; assay type: cell-based, Staphylococcus aureus; details: S. aureus 25923
Method: as §3, §4

[8] = test system: planktonic clinical MRSA isolate MRSA b; assay: as above; assay type: cell-based, Staphylococcus aureus; details: MRSA b (resistant to 4 antibiotics)
Method: as §3, §4

[9] = test system: planktonic clinical MRSA isolate MRSA e; assay: as above; assay type: cell-based, Staphylococcus aureus; details: MRSA e (resistant to 9 antibiotics)
Method: as §3, §4

S. aureus = assay: Plate assay for anti-bacterial properties (agar holes filled with vehicle); assay type: cell-based; details: in vehicle: 20 mM Def and/or 200 μg/ml GaPP, 24 hours
Method: To investigate the anti-bacterial properties of Def and GaPP individually, or with Def and GaPP in combination, a plate assay was used. Briefly, liquid nutrient agar was mixed with an aliquot of a S. aureus or Pseudomonas aeruginosa overnight culture and poured into Petri dishes. After the agar was solidified, holes (0.9 cm diameter) were punched into the agar and aspirated. Subsequently, the holes were filled with 200 μl of a vehicle with and without Def/GaPP. Following incubation at 37° C. for 24 hours, the inhibition diameter was assessed as a measure of efficacy against S. aureus or Pseudomonas aeruginosa bacteria.

[10] = test system: S. aureus ATCC 25923 biofilms; assay: S. aureus biofilm killing, 96-well biofilm, AlamarBlue viability assay; assay type: cell-based, Staphylococcus aureus; details: 2 h
Method: Single colonies of S. aureus ATCC 25923 (American Type Culture Collection, Manassas, Va., USA) were immersed in 0.45% saline (Sigma Aldrich, Germany), adjusted to 1.0±0.1 McFarland units (3×10^8 colony forming units/ml), and diluted 1:15 in nutrient broth (Oxoid Ltd., England). The bacteria-broth mixture was added into 96-well plates at 150 μl per well (Costar®, Corning Incorporated, NY, USA). Incubation for 72 hours at 37° C. on a rotating plate set at 70 rpm (3D Gyratory Mixer, Ratek Instruments, Australia) assured extensive S. aureus biofilm growth.
Biofilms were washed twice with phosphate buffered saline (PBS, Sigma Aldrich, Germany) to remove planktonic cells, before treating the biofilms with various concentrations of i) Deferiprone (“Def”; 3-hydroxy-1,2-dimethylpyridin-4(1H)-one, Sigma Aldrich, Germany), ii) Gallium-Protoporphyrin (“GAPP”; Frontier Scientific, UT, USA), iii) a concurrent combination of both compounds and iv) a consecutive combination of both compounds. To prepare the treatments, Def was dissolved in water and GaPP was dissolved in an aqueous 0.03% solution of Tween® 80 (polyoxyethylene sorbitan […], Sigma Aldrich, Germany), i.e. above the critical micelle concentration (CMC) of Tween® 80 ([…]). Controls included bacterial wells without treatment (i.e. 100% bacterial growth, negative control), blank wells without bacteria (i.e. 0% growth, positive control) and bacterial wells with Tween® 80 treatment (as a control for GaPP dilutions). After 2 hours incubation of each treatment at 37° C. on a rotating plate, a second washing step with PBS followed to remove the treatments.
Bacterial viability was assessed using the AlamarBlue cell viability assay as described in Peeters, E. et al. (2008) Journal of Microbiological Methods, 72(2): p. 157-165. A 10% AlamarBlue dilution (Resazurin, Life Technologies, Australia) in nutrient broth was prepared and added to each well. Plates were incubated in the dark at 37° C. on a rotating plate. Fluorescence of Resorufin was measured hourly on a FLUOstar OPTIMA plate reader (BMG LABTECH, Germany). The method was set at bottom reading and fluorescence was measured at λexcitation 530 nm/λemission 590 nm. Maximum intensities were typically reached after 6 hours incubation and used for quantification according to Equation 1:
Bacterial viability was determined as the percentage of biofilm killing (% BK), where IC represents the fluorescence intensity of the controls (i.e. 100% bacterial growth) and IT indicates the maximum intensity of the treatments. Both IC and IT were corrected by the intensity of background (i.e. 0% bacterial growth).

[11] = test system: planktonic S. aureus ATCC 25923; assay: Minimal inhibitory concentration, broth microdilution (Example 1); assay type: cell-based, Staphylococcus aureus; details: 20 hours, 37° C.
Method: MIC values were assessed for the individual compounds Def and GaPP against planktonic S. aureus using standard methods, specifically colony suspension method and broth microdilution as described in Wiegand, I. et al. (2008) Nat Protoc, 3(2): p. 163-75. Briefly, single colonies of S. aureus ATCC 25923 were suspended in 0.45% saline and adjusted to 0.5 McFarland units. The bacterial suspension was 1:100 diluted with nutrient broth and plated into 96-well plates. Various treatment dilutions of Def and GaPP were added, followed by incubation of the plate at 37° C. for 20 hours. The MIC was determined as the lowest drug concentration preventing turbidity.

[12] = Staphylococcus aureus, read-out: minimal inhibitory concentration

Cc1c(O)c(=O)ccn1C [Def, 3-hydroxy-1,2-dimethylpyridin-4(1H)-one, reference compound]
cell viability (LDH assay) vs negative control ([1]; Def 20 mM): no statistically significant difference | cell viability (LDH assay) vs negative control ([2]; Def 20 mM): no statistically significant difference | time to complete release from hydrogel ([3]; 37° C., PBS): 48 to 72 h | release of Def (percentage of the original concentration in the gel) ([3]; after approximately 48-72 hours, 37° C., PBS): 100% | MIC [4, 12]: 56 µg/mL | MIC [5, 12]: 56 µg/mL | MIC [6, 12]: 56 µg/mL | MIC ([7]; Staphylococcus aureus, ATCC25923, read-out: minimal inhibitory concentration): 28 µg/mL | MIC [8, 12]: 56 µg/mL | MIC [9, 12]: 56 µg/mL | anti-bacterial activity (inhibition on plate) (S. aureus): relatively little anti-bacterial activity | Biofilm killing (%) by single treatment Def ([10]; Def 0.5 mM): 6.09% | Biofilm killing (%) by single treatment Def ([10]; Def 1.5 mM): 7.65% | Biofilm killing (%) by single treatment Def ([10]; Def 5 mM): 12.07% | Biofilm killing (%) by single treatment Def ([10]; Def 10 mM): 22.88% | Biofilm killing (%) by single treatment Def ([10]; Def 20 mM): 34.00% | biofilm reduction plateau ([10]; Def at concentrations above 20 mM): approximately 34% | MIC ([11]; Staphylococcus aureus, ATCC25923, read-out: MIC): 2500 µM

C=CC1=C(C)C2=[N+]3C1=Cc1c(C)c(C=C)c4[n]1[Ga-]31[n]3c(c(C)c(CCC(=O)O)c3=CC3=[N+]1C(=C4)C(C)=C3CCC(=O)O)=C2 (stereo not shown) [GaPP, gallium-protoporphyrin IX]
cell viability (LDH assay) vs negative control ([1]; GaPP 500 μg/ml): induced cell toxicity | cell viability (LDH assay) vs negative control ([1]; GaPP 100-400 μg/ml): no significant effect | cell viability (LDH assay) vs negative control ([2]; GaPP 500 μg/ml): induced cell toxicity | cell viability (LDH assay) vs negative control ([2]; GaPP 100-400 μg/ml): no significant effect | release of GaPP (percentage of the original concentration in the gel) ([3]; after 460 hours, 37° C., PBS): 20-25% | incorporated GaPP released from the hydrogel ([3]; after 20 days): approximately 25% | minimal inhibitory concentration [4]: 1.48 µg/mL | minimal inhibitory concentration [5]: 1.48 µg/mL | minimal inhibitory concentration [6]: 1.48 µg/mL | minimal inhibitory concentration [7]: 0.90 µg/mL | minimal inhibitory concentration [8]: 0.74 µg/mL | minimal inhibitory concentration [9]: 1.48 µg/mL | anti-bacterial activity (inhibition on plate) (S. aureus): significant anti-bacterial activity | Biofilm killing (%) by single treatment GaPP ([10]; GaPP 1 μg/ml): 9.04% | Biofilm killing (%) by single treatment GaPP ([10]; GaPP 5 μg/ml): 32.18% | Biofilm killing (%) by single treatment GaPP ([10]; GaPP 10 μg/ml): 41.99% | Biofilm killing (%) by single treatment GaPP ([10]; GaPP 50 μg/ml): 52.90% | Biofilm killing (%) by single treatment GaPP ([10]; GaPP 100 μg/ml): 69.86% | MIC [11]: 0.4 µg/mL
